How the values were obtained:
[1] = UV/Vis spectra in methylene chloride; type: physicochemical; conditions: for λ/nm, absorption peak, 1st peak / λ/nm, absorption peak, 2nd peak / λ/nm, absorption peak, 3rd peak / λ/nm, absorption peak, 4th peak / λ/nm, absorption peak, 5th peak / shift of the peak in the Q band: methylene chloride; for shift of the peak in the Q band / coagulation inhibitory effect / suppression of coagulation: in words; for coagulation inhibitory effect / suppression of coagulation: in solution, judged from UV/Vis spectrum
Source text: FIGS. 1 to 4 show the UV/Vis spectra of the inventive phthalocyanine derivatives obtained above in Examples 8 to 11 in methylene chloride.

[2] = fluorescence spectra in methylene chloride; type: physicochemical; conditions: for fluorescence quantum yield, tendency in words: methylene chloride
Source text: FIGS. 6 to 9 show the fluorescence spectra of the inventive phthalocyanine derivatives obtained above in Examples 8 to 11 in methylene chloride.

[3] = solubility in an organic solvent (purification by column chromatography); conditions: result in words
[4] = 1.0 × 10^−4 M + Py, broken line
[5] = 1.0 × 10^−4 M, solid line (no pyridine)
[6] = CH2C12, solid line (no pyridine)
[7] = CH2C12—Py, broken line (in the presence of pyridine)

Substance | λ/nm, absorption peak, 1st peak [1, 4] [nm] | λ/nm, absorption peak, 2nd peak [1, 4] [nm] | λ/nm, absorption peak, 3rd peak [1, 4] [nm] | λ/nm, absorption peak, 4th peak [1, 4] [nm] | λ/nm, absorption peak, 1st peak [1, 5] [nm] | λ/nm, absorption peak, 2nd peak [1, 5] [nm] | λ/nm, absorption peak, 3rd peak [1, 5] [nm] | λ/nm, absorption peak, 4th peak [1, 5] [nm] | λ/nm, absorption peak, 5th peak [1, 5] [nm] | shift of the peak in the Q band [1] | Φf fluorescence quantum yield [2, 6] | λem (nm) [2, 6] [nm] | λem (nm) ([2]; CH2C12—Py, broken line) | Φf fluorescence quantum yield [2, 7] | fluorescence quantum yield, tendency in words [2] | λ/nm, absorption peak, 5th peak [1, 4] [nm] | solubility in an organic solvent [3] | coagulation inhibitory effect / suppression of coagulation [1]
α-tetrakis(phenoxy)-β-tetrakis(pentafluorosulfanyl)zinc phthalocyanine [Example 10] | 328 | 384 | 624 | 694 | 326 | 384 | 624 | 694 | 733 | significant redshift | 0.26 | 738 | 704 | 0.34 | decrease in fluorescence quantum yield | – | – | –
trifluoromethyl phthalocyanine [CF3Pc, reference compound] | 334 | 371 | 604 | 628 | 334 | – | – | 626 | 668 | – | 0.58 | 675 | 674 | 0.76 | – | 669 | too poorly soluble in an organic solvent to be purified by column chromatography | –
α-tetrakis(thiophenoxy)-β-tetrakis(pentafluorosulfanyl)zinc phthalocyanine [Example 11] | 334 | – | 406 | 641 | 333 | – | 407 | 641 | 712 | significant redshift | 0.24 | 721 | 723 | 0.34 | decrease in fluorescence quantum yield | 713 | – | –
tetrakis(pentafluorosulfanyl)zinc phthalocyanine [Example 8] | 333 | 363 | 607 | 639 | 334 | 365 | 607 | 637 | 672 | – | 0.55 | 676 | 676 | 0.74 | – | 671 | – | superior coagulation inhibitory effect
α-tetrakis(trifluoromethyl)-β-tetrakis(pentafluorosulfanyl)zinc phthalocyanine [Example 9] | 332 | 380 | 597 | 628 | 330 | 380 | 598 | 629 | 662 | – | 0.52 | 669 | 667 | 0.84 | – | 659 | – | superior in solubility and suppression of coagulation to the phthalocyanine obtained in Example 8

Source: patent publication US9580604B2, “Pentafluorosulfanyl phthalocyanine derivatives and intermediates thereof” (UBE INDUSTRIES, LTD., priority 2012, dated 2017)
